For orientation: viability means a read-out of living cells in per cent, often relative to untreated cells.

This data set can be described thus: in vitro. The conditions noted are these: human, hela cells, % viability.

On to `OCCN1CCN(c2ccc(-c3cc(C(F)(F)F)cc(C(F)(F)F)c3)cn2)CC1` [CBK036941], for which the viability at 28.5 h, 10 µM was determined as 99%.

With `COc1ccc(-c2ccc(OC)cc2C(=O)Nc2ccc(Cn3cncn3)cc2)cc1` [CBK285588], the viability at 28.5 h, 10 µM came out at 109%. The same measure for `CCOC(=O)c1sc(-c2ccccc2)nc1OCc1ccccc1Cl` [CBK067727]: 95.8%. The same measure for `Clc1ccc(Nc2ncnc3c2cnn3-c2ccc(Cl)cc2)cc1` [CBK287356]: 86.1%; for `Cc1ccnc(Sc2nc3c(c(=O)[nH]c(=O)n3C)n2CCCc2ccccc2)n1` [CBK269353]: 79.4%; for `O=C1NCCN(C(=O)c2cccc3cccnc23)C1Cc1ccc(-c2cccs2)cc1` (centres unmarked) [CBK285809]: 81.4%. `CC1=NN(c2nc(-c3ccc(Br)cc3)cs2)C(=O)C1/N=N/c1ccccc1C(=O)O` (centres unmarked) [CBK262440]: the viability at 28.5 h, 10 µM worked out at 91.8%. The same measure for `COCCNC(=O)c1cc(C2CN(CCc3ccccc3)CCO2)nc2ccccc12` (centres unmarked) [CBK285622]: 99.4%. The same measure for `Nc1nc2c(s1)c(=O)[nH]c(=O)n2-c1ccc(Cl)cc1` [CBK269891]: 78.1%; for `CS(=O)(=O)c1ccc(-c2cnc3[nH]c(=O)n(Cc4cccs4)c3n2)cc1` [CBK064383]: 93.1%. The value for `NC(=O)c1ccc(-n2cc(-c3ccc(Cl)cc3)nn2)cc1` [CBK113046] was 93.4%; that for `NC(=O)c1ccccc1NC(=O)C1CCC(C(=O)Nc2ccccc2C(N)=O)CC1` (centres unmarked) [CBK268716] was 87.1%. For `COc1cccc(N2CC(C(=O)Nc3cccc(C(=O)O)c3)CC2=O)c1` (centres unmarked) [CBK286612], the viability at 28.5 h, 10 µM was determined as 99.7%. The same measure for `O=S(=O)(Nc1nnc(Cc2ccc(Cl)cc2)s1)c1ccc(Cl)cc1` [CBK200048]: 90.2%; for `COc1ccc(CN2CCC(N3CCCCC3)CC2)c(OC)c1` [CBK261848]: 103%; for `O=C(Nc1ccc(F)cc1)Nc1cccnc1Cl` [CBK058509]: 90.4%. As for `O=C(O)CCC(=O)Nc1ccc(C(=O)N2CCCc3ccccc32)cc1` [CBK269118], the viability at 28.5 h, 10 µM was found to be 114%.

For `CCN(CC)C(=O)C1CCN(S(=O)(=O)c2ccc(C)cc2)CC1` [CBK157834], the viability at 28.5 h, 10 µM worked out at 98.7%. The same measure for `COc1cc(OC)cc(C(=O)N2CCC3(CC2)CC(=O)c2cc(F)cc(F)c2O3)c1` [CBK168089]: 108%; for `COc1cccc(-n2c(=O)[nH]c3c(C(N)=O)nc(-c4ccccc4)nc32)c1` [CBK287740]: 121%. Turning to `Cc1cc(C(=O)O)c2[nH]c3c(c2c1)CCCC3` [CBK028885], the viability at 28.5 h, 10 µM came to 95.5%.

As for `CC(=O)N(C)c1ncc(Br)cc1C(=O)NCc1nc2ccccc2[nH]1` [CBK076522], the viability at 28.5 h, 10 µM stood at 95.9%. The same measure for `Cc1csc(C(Cc2cccs2)NC(=O)CN2CCCC2=O)n1` (centres unmarked) [CBK284691]: 109%; for `O[C@@H]1C[C@@H](c2nc(-c3ccc(F)cc3)no2)N(Cc2ncc[nH]2)C1` [CBK288849]: 121%. As to `O=C(O)CCCn1cc(NC(=O)CCc2ccccc2)cn1` [CBK287055], the viability at 28.5 h, 10 µM is 86.4%. The same measure for `Cc1cccc(-c2nnc(-c3ccc(NC(=O)CSCc4ccccc4)cc3)o2)c1` [CBK266775]: 109%. The value for `Cc1ccc(-c2nnc(SCc3cccc4nsnc34)n2C)cc1` [CBK269706] was 92.7%; that for `Clc1cnc2nc(NCC3CCCCC3)sc2c1` [CBK067087] was 87.5%; that for `O=C1OCCN1C1CCN(S(=O)(=O)c2cccs2)CC1` [CBK043313] was 99.3%. Take `CN1CC=C(/C=C/C2=Cc3ccccc3OC2)CC1` [CBK283857]: the viability at 28.5 h, 10 µM was found to be 89.1%. The same measure for `CCOc1cc(C(O)c2nnc(-c3ccccc3)o2)ccc1OCC(C)C` (centres unmarked) [CBK132385]: 89.1%; for `Cc1nc(-c2ccccc2)c(CC(=O)NC2CCCOC2)s1` (centres unmarked) [CBK282586]: 93.4%; for `O=C(NNC(=S)NCC1CCCO1)c1cccnc1` (centres unmarked) [CBK266842]: 97.5%. As for `CCN1CC2(CCN(Cc3ncc[nH]3)CC2)c2ccccc21` [CBK131486], the viability at 28.5 h, 10 µM amounted to 89.1%. `O=C1COc2ccc(S(=O)(=O)NCc3ccccc3)cc2N1` [CBK270156]: the viability at 28.5 h, 10 µM is 93.7%. As for `COCC(=O)N1CCc2sccc2C1c1ccc(NCc2ccccc2F)cc1` (centres unmarked) [CBK286446], the viability at 28.5 h, 10 µM came to 96.6%. Regarding `Cc1cc(NS(=O)(=O)c2cccc(Cl)c2C)n[nH]1` [CBK024382], the viability at 28.5 h, 10 µM is 91.2%. For `CSc1nc(N/N=C/c2ccc(Cl)cc2)c2c3c(sc2n1)CN(C)CC3` [CBK262588], the viability at 28.5 h, 10 µM stood at 107%. The value for `COc1ccc(S(=O)(=O)Nc2ccccc2C(=O)O)cc1OC` [CBK042368] was 85.7%; that for `NC(=O)c1cccc(-n2cc(-c3ccsc3)nn2)c1` [CBK113076] was 86.4%.

As to `COc1ccc(S(=O)(=O)NC[C@H]2C[C@@H]3CC[N@]2C[C@@H]3CN2CCOCC2)cc1` [CBK288761], the viability at 28.5 h, 10 µM came out at 87.7%.

In the case of `CS(=O)(=O)Nc1cc(-c2noc([C@@H]3CCCN3C3CCC3)n2)ccn1` [CBK288889], the viability at 28.5 h, 10 µM was found to be 112%. `O=C(O)CCCn1cc(NC(=O)c2cccc(F)c2)cn1` [CBK270051]: the viability at 28.5 h, 10 µM turned out to be 91.4%. The value for `Cc1cc(C)c2c(c1)-c1c(ssc1=S)C(C)(C)N2C(=O)CSc1nncn1C` [CBK263035] was 106%; that for `CN1CCN(C(=O)c2ccc(NS(=O)(=O)c3cc(Cl)sc3Cl)cc2)CC1` [CBK034549] was 94%. Regarding `O=C(NC1CC(=O)N(CCc2ccc(F)cc2)C1)c1cn2ccsc2n1` (centres unmarked) [CBK307263], the viability at 28.5 h, 10 µM is 100%.

For the compound `C[C@@H](Cn1nnc2ccccc21)NC(=O)c1cccs1` [CBK284322], the viability at 28.5 h, 10 µM is 82.3%. The same measure for `COCCNC(=O)c1cc(-c2cccc(C(=O)N(C)C)c2)cnc1N1CCOCC1` [CBK076464]: 97.7%; for `NC[C@H]1CC[C@H](C(=O)N2CCC(c3ccncc3)CC2)CC1` [CBK283332]: 110%. The same measure for `Cc1ccc2c(CC(=O)N(C)CCN(C)C)c(C)[nH]c2c1C` [CBK282157]: 102%; for `Oc1cc2nnnn2nc1-c1ccccc1` [CBK019550]: 101%.

For the compound `Cc1ccc(CCC(=O)N2CCNCC2C)c(C)c1` (centres unmarked) [CBK304481], the viability at 28.5 h, 10 µM was 90%. As for `O=C(C1CC2C=CC1C21CC1)N1CCN(Cc2ccccn2)CC1` (centres unmarked) [CBK281443], the viability at 28.5 h, 10 µM turned out to be 86.3%. The value for `C=CCC1c2cccc(C(=O)O)c2C(=O)N1c1ccc(F)cc1` (centres unmarked) [CBK113158] was 94.1%; that for `Cc1cc2nc(/C(C#N)=C\c3cn(CC(=O)Nc4ccc(F)cc4)c4ccccc34)[nH]c2cc1C` [CBK269142] was 113%. The value for `CC(SCC(=O)Nc1ccc(F)cc1)c1nc2ccccc2c(=O)[nH]1` (centres unmarked) [CBK269200] was 105%.

Turning to `C/C(=N\NC(=O)C(C)Sc1ncccn1)C(C)(C)C` (centres unmarked) [CBK020243], the viability at 28.5 h, 10 µM stood at 104%. For `O=C1CCc2cccc(OCCOc3nccnc3N3CCNCC3)c21` [CBK200001G], the viability at 28.5 h, 10 µM turned out to be 101%. The value for `CCC(CN1CCOCC1)NC(=O)Cc1coc2cc(C)cc(C)c12` (centres unmarked) [CBK282812] was 103%.

Consider `C=CCOc1cccn2c(N(C=O)Cc3ccccc3)c(CC)nc12` [CBK147827], for which the viability at 28.5 h, 10 µM was determined as 92.2%. The same measure for `CCC(CC)C(=O)Nc1nc(OC)cnc1-c1cccc(C(=O)N(C)C)c1` [CBK145392]: 98.5%; for `O=c1[nH]c(Nc2ccccc2)nc2nccc(-c3ccccc3)c12` [CBK288072]: 88.8%; for `Cn1c(N2CC[C@H](O)C2)nc2cc(C(=O)NCCn3cccc3)ccc21` [CBK307480]: 83.6%. The value for `COc1cc(C(=O)N2CCC3(CC2)CC(=O)c2cc(C)c(C)cc2O3)ccc1C` [CBK164202] was 105%.

Consider `Cc1cn([C@@H]2O[C@H](CO)[C@H](O)C2O)c(=O)[nH]c1=O` (some centres unmarked) [CBK201265], for which the viability at 28.5 h, 10 µM stood at 101%. Regarding `Cc1cccc(OCC2CCCN(C(=O)c3cn(C)cn3)C2)c1` (centres unmarked) [CBK307021], the viability at 28.5 h, 10 µM is 83.4%. On to `COCCCNC(=O)c1cnn2c(C)c(Cc3cccc(F)c3)c(C)nc12` [CBK162126], for which the viability at 28.5 h, 10 µM turned out to be 116%. The same measure for `CCc1nc(N)nc(N2CCC3(CCC(CNC(C)=O)O3)CC2)c1C` (centres unmarked) [CBK307168]: 100%. The same measure for `CCn1cc(CN2CCN(C(=O)c3csc(C(C)C)c3)CC2)cn1` [CBK282044]: 88.1%. The value for `O=c1[nH]c(=O)c2cc(S(=O)(=O)N3CCCCC3CN3CCCCC3)ccc2[nH]1` (centres unmarked) [CBK286393] was 83.5%; that for `COc1ccc(Cl)cc1N1CCN(Cc2ncc[nH]2)CC1` [CBK126418] was 98.1%. As for `CCC(CO)Nc1nccnc1-c1ccoc1` (centres unmarked) [CBK088756], the viability at 28.5 h, 10 µM turned out to be 100%. The value for `O=C(Nc1ccc(Oc2cccnc2)cc1)C1CCCN1` (centres unmarked) [CBK282498] was 110%; that for `Nc1nc(=O)c2cnc3ccc(F)cc3c2s1` [CBK291195] was 111%; that for `COc1ccc(/C=C(/C(=O)NCc2ccc(Cl)cc2Cl)c2ccccc2)cc1` [CBK265256] was 89.9%. The value for `CN(C)[C@@H]1CN(Cc2ccccc2O)C[C@H]1c1cn(C)c2ccccc12` [CBK284895] was 88.3%; that for `CCOc1cc(CNCc2ccc(C(=O)O)cc2)ccc1OC` [CBK270029C] was 89.7%.

For the compound `Cc1cn2c3c(=O)n(CCN4CCOCC4)c(=O)n(C)c3nc2n1CC1CCCO1` (centres unmarked) [CBK269985], the viability at 28.5 h, 10 µM came to 92.3%. Take `CC(=O)Nc1ccc(CNC(=O)c2ccoc2C)cc1` [CBK305010]: the viability at 28.5 h, 10 µM was 114%. As for `CCCCNC(=O)c1c(N)n(-c2ccc(C(=O)O)cc2)c2nc3ccccc3nc12` [CBK300500], the viability at 28.5 h, 10 µM was determined as 82.7%.
